This passage reports Ki and Km results from PMC5427942, “Methionine aminopeptidase 2 is a key regulator of apoptotic like cell death in Leishmania donovani” (Scientific Reports, 2017).

The target of series [1] is T1, methionine aminopeptidase 2 (LdMAP2) (Leishmania donovani, UniProt A0A3S7WWI2).
T1 construct: gene LdCL_210014600
Put plainly: fluorogenic Met-AMC hydrolysis assay, Lineweaver-Burk plot, single inhibitor concentration ([…]). Type of series: biochemical.

Substrate in the series “purified protein”: CSCC[C@H](N)C(=O)Nc1ccc2c(C)cc(=O)oc2c1
Put plainly: purified protein. As to conditions: divalent metal ion ([…] NiSO4 in assay).

In series [1], `CO[C@@H]1[C@H](OC(=O)NC(=O)CCl)CC[C@]2(CO2)[C@H]1[C@@]1(C)O[C@@H]1CC=C(C)C` [TNP-470, 5-methoxy-4-(2-methyl-3-(3-methyl-2-butenyl)oxiranyl)-1-oxaspiro(2,5)oct-6-yl (chloroacetyl) carbamate] displayed a Ki of 13.5 nM.

B1: methionine aminopeptidase 2 (LdMAP2) (Leishmania donovani) (protein)
chain: MPPKMSAKNKQQPKQQGGNKKGKGSSQDGDDFDAMLAAAVNASKADAAKNHSNNHQGKRSSNGNGTAPASRSLAADEPVVPSSADHPENPYPKTADGYPRQTWPEPTVLVSKQFAPGQFPAGEIVDHPGEMNNFRRSSEEKRALARASEQQVQEMREAAEVHRQVRTWAQSWIKPGLSLMLMTDRIEKKLNELIGKDGILRGQAFPTGCSLNHVAAHYTPNTGDEKVVLAYDDVMKVDFGTHINGRIIDCAWTVAFNPMFDPLLQAVKEATYEGIKQAGIDVRLGDIGAAIEEVMESHEVEINGKVHQVKSIRNLSGHNIAPYIIHSGKSVPIVKGGEQTKMEEGEVFAIETFGSTGRGFVNEDLECSHYMMRPGAEVMQLRSEKAQQLLKHIHKSYSTLAFCRKWLDRDGFDRHLMNLNRLVDEGAVNKYPPLVDVKGSYTAQYEHTIYLGPTAKEILSKGSDY
Take B1: the Km in the series “purified protein” amounted to 0.2 mM.
